Test results as given in patent EP4458352A1, “EICOSAPENTAENOIC ACID ESTER DERIVATIVES FOR THE TREATMENT OF OBESITY” (Technische Universität Dresden, priority 2023, dated 2024).

How the values were obtained:
[1] = tested on: adrenal glands of mice fed a HFD; assay: FFA measurement (HPLC-MS) in adrenal glands of HFD mice with or without SC-26196; assay type: in vivo, WT C57BL/6J mice; conditions: HFD with vs without SC-26196; n=8-10 mice per group
Method: (§1) Six weeks-old male WT C57BL/6J mice were fed for 20 weeks a LFD (D12450B, Research Diets, NJ, USA) or a HFD (D12492, Research Diets, NJ, USA). In some experiments, WT C57BL/6J mice were fed for 8 weeks a HFD and for another 8 weeks a HFD supplemented with SC-26196 (Biorbyt Ltd). SC-26196 was mixed in the HFD at a concentration of 625 mg/kg of diet corresponding to approx. 100 mg/kg of animal weight. In other experiments WT mice were fed for 10 weeks a HFD and for another 10 weeks a HFD supplemented with icosapent ethyl (Vascepa). The content of Vascepa capsules was mixed by Research Diets with the diet at a concentration of 1.125 g/kg icosapent ethyl (corresponding to approx. 180 mg/kg of animal weight). Mice were weighed every week. Glucose and insulin tolerance tests were performed as previously described (20, 21). Three to five mg of hair (2-3 mm close to the skin on the back of the mice) were cut while gently holding the mice without anaesthesia.
Frozen adrenal glands were homogenized in 200 µL PBS-buffer. Lipids were extracted from adrenal lysates or supernatants in chloroform/methanol (Folch's protocol). The extract was evaporated to dryness under stream of nitrogen at 40 °C. The residue was dissolved in 100 µL ethanol. For FFA 50 µL were used. […] The quantification was performed with individual calibration curves using deuterated standards (Cayman Chemical, Ann Arbor, MI).

HFD mice = assay: Hair corticosteroid levels (LC-MS/MS) in HFD mice given dietary SC-26196; assay type: in vivo, WT C57BL/6J mice
Method: as §1
Corticosterone and 11-dehydrocorticosterone in hair were extracted with methanol as described elsewhere. In brief, hair (3-5 mg) was washed by addition of 2.5 mL isopropanol. After 3 minutes the isopropanol was decanted and hair samples were dried in a fume hood. After drying, hair samples were extracted in 1.8 mL methanol that contained the internal standard mixtures for 18 h at room temperature. Finally, the methanolic extract was dried down, followed by reconstitution in respective mobile phase and analysis by LC-MS/MS as previously described with minor modifications. […] Corticosterone and 11-dehydrocorticosterone were detected by using the multi reaction monitoring scan mode with respective quantifier ions of 347.1->329.2 and 345.1->121.1, and qualifier ions of 347.1->90.9 and 345.1->242.3. […] Quantification of steroid hormones was achieved by comparisons of ratios of analyte peak areas to internal standard peak areas observed in samples to those in calibrators. Measured steroid concentrations were normalized to sample weights.

[2] = 6 weeks after SC-26196 treatment start, HFD containing 0.625 g/kg SC-26196 vs control, n=8-10

N#CC(CCCN1CCN(/N=C/c2cccnc2)CC1)(c1ccccc1)c1ccccc1 [SC-26196]
reduced: free PUFA, including ARA, levels in the adrenal glands [1] | levels of 11-dehydrocorticosterone in newly-grown hair (HFD mice; 3 weeks after SC-26196 treatment start, HFD containing 0.625 g/kg SC-26196 (approx. 100 mg/kg of animal weight) vs control) | 11-dehydrocorticosterone levels in the hair (HFD mice; [2]) | corticosterone levels in the hair (HFD mice; [2])
